Reference: patent US8748448B2, “Combination analgesic employing opioid agonist and neutral antagonist” (AIKO Biotechnology, priority 2007, dated 2014)
Values joined by “and” are separate entries in the source; they are usually repeats but may differ in a detail not shown here. Equal entries are not always repeated. Where two headings read alike, the source gives them in different places.

Assays:
[1] = Concentrations in plasma and brain tissue after i.p. injection (LC/MS/MS); details: for change of levels at 60 min from those measured at 10 min: after i.p. injection; for concentration at 10 min / concentration at 60 min: mouse, 1 mg/kg
[2] = Oral bioavailability of the neutral antagonists
[3] = Neutral antagonist comparison (Table 3); details: for Equivalent dose (as compared to 1.5 mg to 5 mg 6β-naltrexol): 70 kg subject; for potency, times less potent than 6β-naltrexol: stated as 'may be'/'probably'
[4] = test system: hydrocodone-induced antinociception; assay: 55° C. warm-water tail-flick assay: inhibition of hydrocodone-induced antinociception; format: in vivo, mice
[5] = test system: hydrocodone effects: GI transit (peripheral) vs. antinociception (central); assay: Peripheral vs. central potency, (antinociception ID50)/(GI transit ID50); format: in vivo, mice; details: for fold more potent peripherally than centrally: over all administration routes
[6] = test system: hydrocodone induced GI inhibition; assay: GI transit assay (charcoal meal): reversal of hydrocodone induced GI inhibition; details: for induction of diarrhea: on administration of the antagonist
[7] = po; cited from earlier work
[8] = test system: opioid withdrawal in methadone-dependent subjects; assay: Double-blind ascending dose study in methadone maintenance subjects: withdrawal scales, VAS, vital signs, pupillometry, tolerability
[9] = humans; literature; cited from earlier work
[10] = 1 mg/kg i.p., 60 min after injection
[11] = 10 mg/kg i.p., 10 min after injection
[12] = 10 mg/kg i.p., 60 min after injection
[13] = antagonist i.v., hydrocodone A90 3.2 mg/kg i.v.
[14] = antagonist p.o., hydrocodone A90 3.2 mg/kg i.v.
[15] = antagonist p.o. co-administered with hydrocodone A90 32 mg/kg p.o.

6β-naltrexamide
Brain concentration ([1]; 1 mg/kg i.p., 10 min after injection): 6 ± 1 ng/g | Plasma concentration ([1]; 1 mg/kg i.p., 10 min after injection, mean±SD, n=3): 115 ± 2 ng/mL | Brain concentration [1, 10]: 4 ± 1 ng/g | Plasma concentration [1, 10]: 18 ± 1 ng/mL | Brain concentration [1, 11]: 27 ± 6 ng/g | Plasma concentration [1, 11]: 933 ± 221 ng/mL | Brain concentration [1, 12]: 24 ± 1 ng/g | Plasma concentration [1, 12]: 166 ± 77 ng/mL | change of levels at 60 min from those measured at 10 min [1]: had not changed | blood half-life compared with 6β-naltrexol ([1]; mice, preliminary experiments): longer blood half-life than 6β-naltrexol | oral bioavailability (into the circulation), estimated ([2]; humans, estimated): approximately 25% | oral bioavailability ([2]; species not stated): ~20% | Half-life of active metabolites [3]: Estimated >12 hours | Bioavailability for CNS (central) effects ([3]; given orally): ~25% | Equivalent dose (as compared to 1.5 mg to 5 mg 6β-naltrexol) ([3]; given orally): 3 to 8 mg | potency, times less potent than 6β-naltrexol [3]: 2-3 fold | potency in blocking hydrocodone-induced antinociception, lower than that of 6β-naltrexol ([4]; mouse, in vivo): approximately 10 fold | time of peak effect of antinociception inhibition ([4]; mouse, in vivo): 120 min and 120 to 180 min | peripheral over central antagonist selectivity compared to 6β-naltrexol ([5]; animal experiments): somewhat higher | Fold-Shift (antinociception ID50)/(GI transit ID50) ([5]; antagonist p.o./hydrocodone i.v.): 14 and 14.3 | selectivity in blocking peripheral over central opioid effects ([5]; mice, oral administration, earlier experiments): approximately twenty-fold | fold more potent peripherally than centrally [5]: 14-25 fold | potency in blocking peripheral effects, lower than 6β-naltrexol on a mg/kg basis ([6]; animal experiments): 2-3 fold | GI Transit ID50 [6, 13]: 0.173 mg/kg | GI Transit ID50 ([6]; antagonist p.o./hydrocodone p.o., full dose-response curves not available): 1 to 2 mg/kg | GI Transit ID50 [6, 14]: 1.92 mg/kg | GI transit ID50, expected ([6]; i.v. administration): 0.1 to 0.2 mg/kg | induction of diarrhea [6]: absent | GI transit ID50, expected ([6]; p.o. administration): 1 to 2 mg/kg

N[C@@H]1CC[C@@]2(O)[C@H]3Cc4ccc(O)c5c4[C@@]2(CCN3CC2CC2)[C@H]1O5 [6β-naltrexamine]
Equivalent dose (as compared to 1.5 mg to 5 mg 6β-naltrexol) ([3]; given orally): 7.5 to 20 mg | potency, times less potent than 6β-naltrexol [3]: 3-6 fold

COc1ccc2c3c1O[C@H]1[C@@H](O)C=C[C@H]4[C@@H](C2)N(C)CC[C@@]341 [Codeine]
Bioavailability for CNS (central) effects [7]: ≈90%

COc1ccc2c3c1O[C@H]1C(=O)CC[C@H]4[C@@H](C2)N(C)CC[C@]314 [Hydrocodone]
Bioavailability for CNS (central) effects [7]: ≧80%

CN1CC[C@]23CCCC[C@H]2[C@H]1Cc1ccc(O)cc13 [Levorphanol]
Bioavailability for CNS (central) effects [7]: 70%

C=CCN1CC[C@]23c4c5ccc(O)c4O[C@H]2C(=O)CC[C@@]3(O)[C@H]1C5 [Naloxone, naloxone, reference compound]
withdrawal symptoms ([8]; 0.050 mg, methadone-dependent subjects): detectable withdrawal symptoms | Diastolic BP, peak value ([8]; dose 0.05 mg): 76.5 ± 3.8 mmHg | Heart Rate, peak value ([8]; dose 0.05 mg): 63.5 ± 8.0 bpm | SOWS (total), peak value ([8]; dose 0.05 mg): 3.0 ± 2.8 | VAS Any Drug Effect, peak value ([8]; dose 0.05 mg): 15.4 ± 23.7 | VAS Bad Drug Effect, peak value ([8]; dose 0.05 mg): 13.5 ± 25.0 | VAS Good Drug Effect, peak value ([8]; dose 0.05 mg): 10.4 ± 18.9 | VAS Opioid Withdrawal, peak value ([8]; dose 0.05 mg): 5.6 ± 8.2 | VAS Sickness, peak value ([8]; dose 0.05 mg): 4.6 ± 6.5 | OOWS (total), peak value ([8]; dose 0.05 mg, mean ± standard deviation): 2.5 ± 0.6

O=C1CC[C@@]2(O)[C@H]3Cc4ccc(O)c5c4[C@@]2(CCN3CC2CC2)[C@H]1O5 [Naltrexone, naltrexone, reference compound]
change of levels at 60 min from those measured at 10 min [1]: ~90% | detectability after administration of 6β-naltrexol ([1]; i.p. 6β-naltrexol): no naltrexone was detectable | concentration at 10 min ([1]; brain, intraperitoneal): 69 ± 20 ng/g | concentration at 60 min ([1]; brain, intraperitoneal): 9 ± 1 ng/g | concentration at 10 min ([1]; in vivo): 54 ± 16 ng/mL | concentration at 60 min ([1]; in vivo): 4 ± 1 ng/mL | Antinociception ID50 ([4]; antagonist i.v. pretreatment, hydrocodone A90 3.2 mg/kg i.v.): 0.0411 mg/kg | Antinociception ID50 [4, 15]: 0.914 mg/kg | Antinociception ID50 ([4]; antagonist p.o. pretreatment, hydrocodone A90 3.2 mg/kg i.v.): 0.534 mg/kg | time of peak effect of antinociception inhibition ([4]; i.v. administration, hydrocodone 3.2 mg/kg i.v.): 30 min | time of peak effect of antinociception inhibition ([4]; p.o. administration, hydrocodone 3.2 mg/kg i.v.): 45 min | fraction converted to 6β-naltrexol [9]: approximately 43% | fold more potent peripherally than centrally [5]: nearly equipotent peripherally and centrally | GI Transit ID50 [6, 13]: 0.0456 mg/kg | GI Transit ID50 [6, 15]: 1.40 mg/kg | GI Transit ID50 [6, 14]: 0.194 mg/kg | induction of diarrhea [6]: strong induction of diarrhea was present

CN1CC[C@]23c4c5ccc(O)c4O[C@H]2C(=O)CC[C@@]3(O)[C@H]1C5 [Oxymorphone]
Bioavailability for CNS (central) effects [7]: 10%

CCOC(=O)C1(c2ccccc2)CCN(C)CC1 [Pethidine]
Bioavailability for CNS (central) effects [7]: 50-60%

COc1cccc(C2(O)CCCCC2CN(C)C)c1 (stereo not shown) [Tramadol]
Bioavailability for CNS (central) effects [7]: 68-72%
